The IC50 is the point on the concentration scale where inhibition reaches its midpoint.

The first assay has as its system HT-1080. Put plainly: Cytotoxicity against human HT1080 cells assessed as cell growth inhibition after 48 hrs by MTT assay. In kind it is functional, cell-based. The settings on record: HT-1080, 48 h.
Turning to `COc1ccc(-c2nc3cc(/C=C4\SC(=O)N(CC(=O)N5CCOCC5)C4=O)ccc3[nH]2)cc1OC`, the IC50 came out at 3.32 µM.
In the case of `COc1cc(-c2nc3cc(/C=C4\SC(=O)N(CC(=O)N5CCCCC5)C4=O)ccc3[nH]2)cc(OC)c1OC`, the IC50 worked out at 3.65 µM.
With `COc1cc(-c2nc3cc(/C=C4\SC(=O)N(Cc5cccc(C)c5)C4=O)ccc3[nH]2)cc(OC)c1OC`, the IC50 came out at 4.58 µM.
Still for that read-out and setting: next, `COc1cc(CN2C(=O)S/C(=C\c3ccc4[nH]c(-c5cc(OC)c(OC)c(OC)c5)nc4c3)C2=O)cc(OC)c1OC`: 0.98 µM; `COc1cc(OC)c(-c2nc3cc(/C=C4\SC(=O)N(CC(=O)N5CCOCC5)C4=O)ccc3[nH]2)cc1OC`: 1.12 µM.
Still for that read-out and setting: under `COc1ccc(-c2nc3cc(/C=C4\SC(=O)NC4=O)ccc3[nH]2)cc1OC` stands 2.43 µM; under `COc1cc(-c2nc3cc(/C=C4\SC(=O)N(CC(=O)c5ccccc5)C4=O)ccc3[nH]2)cc(OC)c1OC`, 0.57 µM; under `COc1cc(-c2nc3cc(/C=C4\SC(=O)N(Cc5ccccc5)C4=O)ccc3[nH]2)cc(OC)c1OC`, 0.66 µM.
Take `COc1cc(-c2nc3cc(/C=C4\SC(=O)N(CC(=O)N5CCOCC5)C4=O)ccc3[nH]2)cc(OC)c1OC`: the IC50 turned out to be 1.68 µM.
Take `COc1cc(OC)c(-c2nc3cc(/C=C4\SC(=O)NC4=O)ccc3[nH]2)cc1OC`: the IC50 turned out to be 6.35 µM.
`COc1cc(-c2nc3cc(/C=C4\SC(=O)NC4=O)ccc3[nH]2)ccc1OCC(C)C`: the IC50 worked out at 4.45 µM.
Turning to `COc1ccc(-c2nc3cc(/C=C4\SC(=O)N(CC(=O)c5ccccc5)C4=O)ccc3[nH]2)cc1OC`, the IC50 worked out at 0.59 µM.

The subject of a further assay is PC-3. Put plainly: Cytotoxicity against human PC3 cells assessed as cell growth inhibition after 48 hrs by MTT assay. In kind it is functional, cell-based. The settings on record: PC-3, 48 h. (In general: Tetrazolium dyes change colour on reduction, which living cells bring about.)
For the compound `COc1ccc(-c2nc3cc(/C=C4\SC(=O)N(CC(=O)N5CCOCC5)C4=O)ccc3[nH]2)cc1OC`, the IC50 was > 50 µM.
Consider `COc1cc(-c2nc3cc(/C=C4\SC(=O)N(CC(=O)N5CCCCC5)C4=O)ccc3[nH]2)cc(OC)c1OC`, for which the IC50 came to 14.7 µM.
With `COc1cc(-c2nc3cc(/C=C4\SC(=O)N(Cc5cccc(C)c5)C4=O)ccc3[nH]2)cc(OC)c1OC`, the IC50 worked out at 4.37 µM.
Take `COc1cc(CN2C(=O)S/C(=C\c3ccc4[nH]c(-c5cc(OC)c(OC)c(OC)c5)nc4c3)C2=O)cc(OC)c1OC`: the IC50 was determined as 10.2 µM.
The same measure, in the same setting: under `COc1cc(OC)c(-c2nc3cc(/C=C4\SC(=O)N(CC(=O)N5CCOCC5)C4=O)ccc3[nH]2)cc1OC` stands 11.7 µM.
As for `COc1ccc(-c2nc3cc(/C=C4\SC(=O)NC4=O)ccc3[nH]2)cc1OC`, the IC50 stood at 8.72 µM.
In the case of `COc1cc(-c2nc3cc(/C=C4\SC(=O)N(CC(=O)c5ccccc5)C4=O)ccc3[nH]2)cc(OC)c1OC`, the IC50 is > 50 µM.
Same read-out and setting: under `COc1cc(-c2nc3cc(/C=C4\SC(=O)N(Cc5ccccc5)C4=O)ccc3[nH]2)cc(OC)c1OC` stands 2.5 µM; under `COc1cc(-c2nc3cc(/C=C4\SC(=O)N(CC(=O)N5CCOCC5)C4=O)ccc3[nH]2)cc(OC)c1OC`, 5.94 µM; under `COc1cc(OC)c(-c2nc3cc(/C=C4\SC(=O)NC4=O)ccc3[nH]2)cc1OC`, 6.32 µM.
Same read-out and setting: under `COc1cc(-c2nc3cc(/C=C4\SC(=O)NC4=O)ccc3[nH]2)ccc1OCC(C)C` stands 2.98 µM.
Same read-out and setting: next, `COc1ccc(-c2nc3cc(/C=C4\SC(=O)N(CC(=O)c5ccccc5)C4=O)ccc3[nH]2)cc1OC`: 0.43 µM.

The next assay has as its system MDA-MB-231. Nature of the assay: Cytotoxicity against human MDA-MB-231 cells assessed as cell growth inhibition after 48 hrs by MTT assay. The settings on record: MDA-MB-231, 48 h. In kind it is functional, cell-based.
As to `COc1ccc(-c2nc3cc(/C=C4\SC(=O)N(CC(=O)N5CCOCC5)C4=O)ccc3[nH]2)cc1OC`, the IC50 is > 50 µM.
As for `COc1cc(-c2nc3cc(/C=C4\SC(=O)N(CC(=O)N5CCCCC5)C4=O)ccc3[nH]2)cc(OC)c1OC`, the IC50 is 34.9 µM.
Still for that read-out and setting: next, `COc1cc(-c2nc3cc(/C=C4\SC(=O)N(Cc5cccc(C)c5)C4=O)ccc3[nH]2)cc(OC)c1OC`: 3.26 µM; `COc1cc(CN2C(=O)S/C(=C\c3ccc4[nH]c(-c5cc(OC)c(OC)c(OC)c5)nc4c3)C2=O)cc(OC)c1OC`: 0.27 µM.
In the case of `COc1cc(OC)c(-c2nc3cc(/C=C4\SC(=O)N(CC(=O)N5CCOCC5)C4=O)ccc3[nH]2)cc1OC`, the IC50 worked out at 21.3 µM.
For `COc1ccc(-c2nc3cc(/C=C4\SC(=O)NC4=O)ccc3[nH]2)cc1OC`, the IC50 amounted to 13.6 µM.
Turning to `COc1cc(-c2nc3cc(/C=C4\SC(=O)N(CC(=O)c5ccccc5)C4=O)ccc3[nH]2)cc(OC)c1OC`, the half-maximal inhibitory concentration (IC50) is > 50 µM.
Regarding `COc1cc(-c2nc3cc(/C=C4\SC(=O)N(Cc5ccccc5)C4=O)ccc3[nH]2)cc(OC)c1OC`, the IC50 turned out to be 2.29 µM.
In the case of `COc1cc(-c2nc3cc(/C=C4\SC(=O)N(CC(=O)N5CCOCC5)C4=O)ccc3[nH]2)cc(OC)c1OC`, the IC50 is 14.9 µM.
On the same count and under the same terms, next, `COc1cc(OC)c(-c2nc3cc(/C=C4\SC(=O)NC4=O)ccc3[nH]2)cc1OC`: 24.5 µM; `COc1cc(-c2nc3cc(/C=C4\SC(=O)NC4=O)ccc3[nH]2)ccc1OCC(C)C`: 7.78 µM.
In the case of `COc1ccc(-c2nc3cc(/C=C4\SC(=O)N(CC(=O)c5ccccc5)C4=O)ccc3[nH]2)cc1OC`, the IC50 stood at 2.04 µM.

In the next assay the test system is HeLa. Nature of the assay: Cytotoxicity against human HeLa cells assessed as cell growth inhibition after 48 hrs by MTT assay. In kind it is functional, cell-based.
Settings: not given
In the case of `COc1ccc(-c2nc3cc(/C=C4\SC(=O)N(CC(=O)N5CCOCC5)C4=O)ccc3[nH]2)cc1OC`, the IC50 came out at 7.51 µM.
Same read-out and setting: under `COc1cc(-c2nc3cc(/C=C4\SC(=O)N(CC(=O)N5CCCCC5)C4=O)ccc3[nH]2)cc(OC)c1OC` stands 23.3 µM; under `COc1cc(-c2nc3cc(/C=C4\SC(=O)N(Cc5cccc(C)c5)C4=O)ccc3[nH]2)cc(OC)c1OC`, 1.44 µM.
On the same count and under the same terms, next, `COc1cc(CN2C(=O)S/C(=C\c3ccc4[nH]c(-c5cc(OC)c(OC)c(OC)c5)nc4c3)C2=O)cc(OC)c1OC`: 2.24 µM.
On the same count and under the same terms, next, `COc1cc(OC)c(-c2nc3cc(/C=C4\SC(=O)N(CC(=O)N5CCOCC5)C4=O)ccc3[nH]2)cc1OC`: 0.51 µM; `COc1ccc(-c2nc3cc(/C=C4\SC(=O)NC4=O)ccc3[nH]2)cc1OC`: 7.83 µM.
Regarding `COc1cc(-c2nc3cc(/C=C4\SC(=O)N(CC(=O)c5ccccc5)C4=O)ccc3[nH]2)cc(OC)c1OC`, the IC50 came to 26.3 µM.
Still for that read-out and setting: next, `COc1cc(-c2nc3cc(/C=C4\SC(=O)N(Cc5ccccc5)C4=O)ccc3[nH]2)cc(OC)c1OC`: 0.95 µM; `COc1cc(-c2nc3cc(/C=C4\SC(=O)N(CC(=O)N5CCOCC5)C4=O)ccc3[nH]2)cc(OC)c1OC`: 16.3 µM; `COc1cc(OC)c(-c2nc3cc(/C=C4\SC(=O)NC4=O)ccc3[nH]2)cc1OC`: 15.4 µM.
Same read-out and setting: under `COc1cc(-c2nc3cc(/C=C4\SC(=O)NC4=O)ccc3[nH]2)ccc1OCC(C)C` stands 5.22 µM.
In the case of `COc1ccc(-c2nc3cc(/C=C4\SC(=O)N(CC(=O)c5ccccc5)C4=O)ccc3[nH]2)cc1OC`, the IC50 came to 7.48 µM.

Another assay relates to A549. Put plainly: Cytotoxicity against human A549 cells assessed as cell growth inhibition after 48 hrs by MTT assay. In kind it is functional, cell-based. The note with it: A549, 48 h.
For `COc1ccc(-c2nc3cc(/C=C4\SC(=O)N(CC(=O)N5CCOCC5)C4=O)ccc3[nH]2)cc1OC`, the IC50 is 8.93 µM.
For `COc1cc(-c2nc3cc(/C=C4\SC(=O)N(CC(=O)N5CCCCC5)C4=O)ccc3[nH]2)cc(OC)c1OC`, the IC50 stood at 0.98 µM.
On the same count and under the same terms, under `COc1cc(-c2nc3cc(/C=C4\SC(=O)N(Cc5cccc(C)c5)C4=O)ccc3[nH]2)cc(OC)c1OC` stands 0.93 µM; under `COc1cc(CN2C(=O)S/C(=C\c3ccc4[nH]c(-c5cc(OC)c(OC)c(OC)c5)nc4c3)C2=O)cc(OC)c1OC`, 0.53 µM; under `COc1cc(OC)c(-c2nc3cc(/C=C4\SC(=O)N(CC(=O)N5CCOCC5)C4=O)ccc3[nH]2)cc1OC`, 0.66 µM.
The same measure, in the same setting: next, `COc1ccc(-c2nc3cc(/C=C4\SC(=O)NC4=O)ccc3[nH]2)cc1OC`: 0.57 µM; `COc1cc(-c2nc3cc(/C=C4\SC(=O)N(CC(=O)c5ccccc5)C4=O)ccc3[nH]2)cc(OC)c1OC`: 0.88 µM.
Same read-out and setting: under `COc1cc(-c2nc3cc(/C=C4\SC(=O)N(Cc5ccccc5)C4=O)ccc3[nH]2)cc(OC)c1OC` stands 0.67 µM; under `COc1cc(-c2nc3cc(/C=C4\SC(=O)N(CC(=O)N5CCOCC5)C4=O)ccc3[nH]2)cc(OC)c1OC`, 2.93 µM; under `COc1cc(OC)c(-c2nc3cc(/C=C4\SC(=O)NC4=O)ccc3[nH]2)cc1OC`, 1.84 µM.
Take `COc1cc(-c2nc3cc(/C=C4\SC(=O)NC4=O)ccc3[nH]2)ccc1OCC(C)C`: the IC50 was 5.11 µM.
In the case of `COc1ccc(-c2nc3cc(/C=C4\SC(=O)N(CC(=O)c5ccccc5)C4=O)ccc3[nH]2)cc1OC`, the IC50 stood at 0.74 µM.

A further assay has as its system HEK-293T. Put plainly: Cytotoxicity against HEK293T cells assessed as cell growth inhibition after 48 hrs by MTT assay. In kind it is cell-based. The settings on record: Homo sapiens.
Take `COc1ccc(-c2nc3cc(/C=C4\SC(=O)N(CC(=O)N5CCOCC5)C4=O)ccc3[nH]2)cc1OC`: the 50% inhibitory concentration (IC50) was > 50 µM.
For `COc1cc(-c2nc3cc(/C=C4\SC(=O)N(CC(=O)N5CCCCC5)C4=O)ccc3[nH]2)cc(OC)c1OC`, the IC50 stood at 21.5 µM.
In the case of `COc1cc(-c2nc3cc(/C=C4\SC(=O)N(Cc5cccc(C)c5)C4=O)ccc3[nH]2)cc(OC)c1OC`, the IC50 came to 18.9 µM.
As to `COc1cc(CN2C(=O)S/C(=C\c3ccc4[nH]c(-c5cc(OC)c(OC)c(OC)c5)nc4c3)C2=O)cc(OC)c1OC`, the IC50 worked out at 16.6 µM.
Still for that read-out and setting: under `COc1cc(OC)c(-c2nc3cc(/C=C4\SC(=O)N(CC(=O)N5CCOCC5)C4=O)ccc3[nH]2)cc1OC` stands 35.7 µM; under `COc1ccc(-c2nc3cc(/C=C4\SC(=O)NC4=O)ccc3[nH]2)cc1OC`, 21.7 µM.
Same read-out and setting: under `COc1cc(-c2nc3cc(/C=C4\SC(=O)N(CC(=O)c5ccccc5)C4=O)ccc3[nH]2)cc(OC)c1OC` stands 13.6 µM; under `COc1cc(-c2nc3cc(/C=C4\SC(=O)N(Cc5ccccc5)C4=O)ccc3[nH]2)cc(OC)c1OC`, 8.21 µM.
Regarding `COc1cc(-c2nc3cc(/C=C4\SC(=O)N(CC(=O)N5CCOCC5)C4=O)ccc3[nH]2)cc(OC)c1OC`, the IC50 came out at 18.8 µM.
On to `COc1cc(OC)c(-c2nc3cc(/C=C4\SC(=O)NC4=O)ccc3[nH]2)cc1OC`, for which the IC50 was determined as 15.3 µM.
Still for that read-out and setting: under `COc1cc(-c2nc3cc(/C=C4\SC(=O)NC4=O)ccc3[nH]2)ccc1OCC(C)C` stands 14.1 µM; under `COc1ccc(-c2nc3cc(/C=C4\SC(=O)N(CC(=O)c5ccccc5)C4=O)ccc3[nH]2)cc1OC`, 27.8 µM.

The values above are taken from ChEMBL document CHEMBL4190240, “Conventional and microwave-assisted synthesis of new 1H-benzimidazole-thiazolidinedione derivatives: A potential anticancer scaffold” (Eur J Med Chem, 2017).
